This is an account of results in patent US11498923B2 (Merck Sharp & Dohme Corp., priority 2017, dated 2022).

In this assay the target is T1, human A2a receptor (Homo sapiens, UniProt P29274).
T1 construct: purchased Perkin-Elmer RBHA2AM400UA; host or cells: HEK293 cells, used as a membrane preparation
T1 sequence (P29274 whole entry): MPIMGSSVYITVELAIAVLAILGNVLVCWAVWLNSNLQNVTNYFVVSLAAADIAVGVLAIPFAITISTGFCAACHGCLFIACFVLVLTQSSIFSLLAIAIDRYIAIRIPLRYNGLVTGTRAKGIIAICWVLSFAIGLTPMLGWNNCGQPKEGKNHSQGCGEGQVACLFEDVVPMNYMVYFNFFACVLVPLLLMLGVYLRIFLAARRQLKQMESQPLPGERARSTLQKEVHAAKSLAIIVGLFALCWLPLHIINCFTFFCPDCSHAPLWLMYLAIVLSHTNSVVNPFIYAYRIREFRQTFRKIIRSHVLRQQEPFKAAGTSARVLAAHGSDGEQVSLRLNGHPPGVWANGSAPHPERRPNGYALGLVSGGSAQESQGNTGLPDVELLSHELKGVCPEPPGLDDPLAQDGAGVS
Put plainly: A2a receptor competition binding assay (Scintillation Proximity). The settings on record: membranes from HEK293 cells expressing human A2a receptor; 0.5 nM tritiated ligand; Cheng-Prusoff; read-out: A2a Ki. The method, boiled down:
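Ki values were obtained with the Cheng-Prusoff equation from competition curves against 0.5 nM tritiated antagonist, scintillation proximity counting after 1 h room-temperature incubation. Receptor came from HEK293 membranes pretreated with adenosine deaminase; compound final range 3000–0.15 nM, buffer Ca/Mg-free PBS with 10 mM MgCl2.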
A general note: Scintillation proximity formats need no separation of bound from free tracer.
Consider `N#Cc1ccc(N2CCC3(CCN(C(=O)c4cn5c(N)nc6c(F)cccc6c5n4)C3)C2)c(F)c1` (stereo not drawn) [Ex-275, 4-(7-(5-amino-7-fluoroimidazo[1,2-c]quinazoline-2-carbonyl)-2,7-diazaspiro[4.4]nonan-2-yl)-3-fluorobenzonitrile], for which the inhibition constant Ki (in general, the dissociation constant of the complex between target and ligand, obtained from inhibition or displacement) came to 43 nM.
For `CCCN1CCC2(CCCN(C(=O)c3cn4c(N)nc5c(F)cccc5c4n3)C2)C1` (stereo not drawn) [Ex-276, (5-amino-7-fluoroimidazo[1,2-c]quinazolin-2-yl)(2-propyl-2,7-diazaspiro[4.5]decan-7-yl)methanone] the value was 130 nM; for `CCCN1CCC2(CCN(C(=O)c3cn4c(N)nc5c(F)cccc5c4n3)CC2)C1` [Ex-277, (5-amino-7-fluoroimidazo[1,2-c]quinazolin-2-yl)(2-propyl-2,8-diazaspiro[4.5]decan-8-yl)methanone], 430 nM.
The figure for `CC(=O)N1CCCC2(CCN(C(=O)c3cn4c(N)nc5c(F)cccc5c4n3)CC2)C1` [Ex-278, 1-(9-(5-amino-7-fluoroimidazo[1,2-c]quinazoline-2-carbonyl)-2,9-diazaspiro[5.5]undecan-2-yl)ethan-1-one] is 61 nM; for `CCCN1CCCC2(CCN(C(=O)c3cn4c(N)nc5c(F)cccc5c4n3)CC2)C1` [Ex-279, (5-amino-7-fluoroimidazo[1,2-c]quinazolin-2-yl)(2-propyl-2,9-diazaspiro[5.5]undecan-9-yl)methanone] it is 34 nM; for `CCN1CCC2(CCN(C(=O)c3cn4c(N)nc5c(F)cccc5c4n3)C2)C1` (stereo not drawn) [Ex-280, (5-amino-7-fluoroimidazo[1,2-c]quinazolin-2-yl)(7-ethyl-2,7-diazaspiro[4.4]nonan-2-yl)methanone] it is 100 nM.
For `Nc1nc2c(F)cccc2c2nc(C(=O)N3CCC4(CCN(CCc5ccc(F)cc5)C4)C3)cn12` (stereo not drawn) [Ex-281, (5-amino-7-fluoroimidazo[1,2-c]quinazolin-2-yl)(7-(4-fluorophenethyl)-2,7-diazaspiro[4.4]nonan-2-yl)methanone], the inhibition constant (Ki) worked out at 170 nM.
In the case of `Nc1nc2c(F)cccc2c2nc(C(=O)N3CCC4(CCN(C(=O)Cc5ccc(F)c(F)c5)C4)C3)cn12` (stereo not drawn) [Ex-282, 1-(7-(5-amino-7-fluoroimidazo[1,2-c]quinazoline-2-carbonyl)-2,7-diazaspiro[4.4]nonan-2-yl)-2-(3,4-difluorophenyl)ethan-1-one], the Ki amounted to 32 nM.
As to `Nc1nc2c(F)cccc2c2nc(C(=O)N3CCc4cc(CC(=O)Nc5ccccn5)ccc4C3)cn12` [Ex-283, 2-(2-(5-amino-7-fluoroimidazo[1,2-c]quinazoline-2-carbonyl)-1,2,3,4-tetrahydroisoquinolin-6-yl)-N-(pyridin-2-yl)acetamide], the inhibition constant Ki came out at 21 nM.
For `Nc1nc2c(F)cccc2c2nc(C(=O)N3CCN4CCCC[C@@H]4C3)cn12` [Ex-284, (R)-(5-amino-7-fluoroimidazo[1,2-c]quinazolin-2-yl)(octahydro-2H-pyrido[1,2-a]pyrazin-2-yl)methanone] the value was 33 nM.
For `Nc1nc2c(F)cccc2c2nc(C(=O)N3CCN4CCCC[C@H]4C3)cn12` [Ex-285, (S)-(5-amino-7-fluoroimidazo[1,2-c]quinazolin-2-yl)(octahydro-2H-pyrido[1,2-a]pyrazin-2-yl)methanone] the value was 40 nM; for `Nc1nc2c(F)cccc2c2nc(C(=O)N3CCc4cc(NC(=O)c5ccccn5)ccc4C3)cn12` [Ex-286, N-(2-(5-amino-7-fluoroimidazo[1,2-c]quinazoline-2-carbonyl)-1,2,3,4-tetrahydroisoquinolin-6-yl)picolinamide], 19 nM; for `Nc1nc2c(F)cccc2c2nc(C(=O)N3CCc4cc(-c5cncnc5)ccc4C3)cn12` [Ex-287, (5-amino-7-fluoroimidazo[1,2-c]quinazolin-2-yl)(6-(pyrimidin-5-yl)-3,4-dihydroisoquinolin-2(1H)-yl)methanone], 35 nM.
For the molecule `CC(=O)Nc1ccc2c(c1)CCN(C(=O)c1cn3c(N)nc4c(F)cccc4c3n1)C2` [Ex-288, N-(2-(5-amino-7-fluoroimidazo[1,2-c]quinazoline-2-carbonyl)-1,2,3,4-tetrahydroisoquinolin-6-yl)acetamide], the inhibition constant (Ki) stood at 55 nM.
For `Nc1nc2c(F)cccc2c2nc(C(=O)N3CCc4cc(-c5ccc(F)c(F)c5)ccc4C3)cn12` [Ex-289, (5-amino-7-fluoroimidazo[1,2-c]quinazolin-2-yl)(6-(3,4-difluorophenyl)-3,4-dihydroisoquinolin-2(1H)-yl)methanone] the value was 640 nM.
On to `Nc1nc2c(F)cccc2c2nc(C(=O)N3CCc4ccc(CC(=O)Nc5ccccn5)cc4C3)cn12` [Ex-290, 2-(2-(5-amino-7-fluoroimidazo[1,2-c]quinazoline-2-carbonyl)-1,2,3,4-tetrahydroisoquinolin-7-yl)-N-(pyridin-2-yl)acetamide], for which the inhibitory constant (Ki) is 46 nM.
For `Nc1nc2c(F)cccc2c2nc(C(=O)N3CCc4ccc(NC(=O)c5ccccn5)cc4C3)cn12` [Ex-291, N-(2-(5-amino-7-fluoroimidazo[1,2-c]quinazoline-2-carbonyl)-1,2,3,4-tetrahydroisoquinolin-7-yl)picolinamide] the value was 47 nM; for `Nc1nc2c(F)cccc2c2nc(C(=O)NCc3cccc(Br)n3)cn12` [Ex-294, 5-amino-N-((6-bromopyridin-2-yl)methyl)-7-fluoroimidazo[1,2-c]quinazoline-2-carboxamide], 5.3 nM; for `Cc1cccc(CNC(=O)c2cn3c(N)nc4c(F)cccc4c3n2)n1` [Ex-295, 5-amino-7-fluoro-N-((6-methylpyridin-2-yl)methyl)imidazo[1,2-c]quinazoline-2-carboxamide], 6.2 nM.
For `C[C@H](NC(=O)c1cn2c(N)nc3c(F)cccc3c2n1)c1ccccc1` [Ex-296, (S)-5-amino-7-fluoro-N-(1-phenylethyl)imidazo[1,2-c]quinazoline-2-carboxamide] the value was 28 nM.
For `C[C@@H](NC(=O)c1cn2c(N)nc3c(F)cccc3c2n1)c1ccccc1` [Ex-297, (R)-5-amino-7-fluoro-N-(1-phenylethyl)imidazo[1,2-c]quinazoline-2-carboxamide] the value was 2.3 nM; for `Nc1nc2c(F)cccc2c2nc(C(=O)NCc3ccccn3)cn12` [Ex-298, 5-amino-7-fluoro-N-(pyridin-2-ylmethyl)imidazo[1,2-c]quinazoline-2-carboxamide], 14 nM.
As to `Nc1nc2c(F)cccc2c2nc(CC3CCN(c4ncc(F)cn4)CC3)cn12` [Ex-300, 7-fluoro-2-((1-(5-fluoropyrimidin-2-yl)piperidin-4-yl)methyl)imidazo[1,2-c]quinazolin-5-amine], the inhibition constant Ki stood at 12 nM.
For `Nc1nc2c(F)cccc2c2nc(CC3CCNCC3)cn12` [Ex-303, 7-fluoro-2-(piperidin-4-ylmethyl)imidazo-[1,2-c]quinazolin-5-amine] the value was 170 nM.
For `Nc1nc2c(F)cccc2c2nc(CC3CCN(Cc4ccccc4)CC3)cn12` [Ex-304, 2-((1-benzylpiperidin-4-yl)methyl)-7-fluoro-imidazo[1,2-c]quina-zolin-5-amine] the value was 45 nM; for `Nc1nc2c(F)cccc2c2nc(CC3CCN(CC4CC4)CC3)cn12` [Ex-305, 2-((1-(cyclopropyl-methyl)piperidin-4-yl)methyl)-7-fluoro-imidazo[1,2-c]quina-zolin-5-amine], 220 nM; for `Nc1nc2c(F)cccc2c2nc(CC3CCN(Cc4cccs4)CC3)cn12` [Ex-306, 7-fluoro-2-((1-(thio-phen-2-ylmethyl)-piperidin-4-yl)methyl)-imidazo[1,2-c]quina-zolin-5-amine], 45 nM.
With `CCN1CCC(Cc2cn3c(N)nc4c(F)cccc4c3n2)CC1` [Ex-307, 2-((1-ethyl-piperidin-4-yl)methyl)-7-fluoro-imidazo[1,2-c]quina-zolin-5-amine], the inhibition constant (Ki) was determined as 120 nM.
For `Nc1nc2c(F)cccc2c2nc(CC3CCN(CCc4ccccc4)CC3)cn12` [Ex-308, 7-fluoro-2-((1-phen-ethylpiperidin-4-yl)-methyl)imidazo[1,2-c]quinazolin-5-amine], the Ki stood at 300 nM.
The figure for `COc1ccc(CN2CCC(Cc3cn4c(N)nc5c(F)cccc5c4n3)CC2)cc1` [Ex-309, 7-fluoro-2-((1-(4-methoxybenzyl)-piperidin-4-yl)-methyl)imidazo-[1,2-c]quinazolin-5-amine] is 150 nM; for `COc1cccc(CN2CCC(Cc3cn4c(N)nc5c(F)cccc5c4n3)CC2)c1` [Ex-310, 7-fluoro-2-((1-(3-methoxybenzyl)-piperidin-4-yl)-methyl)imidazo-[1,2-c]quinazolin-5-amine] it is 56 nM.
For `COc1ccccc1CN1CCC(Cc2cn3c(N)nc4c(F)cccc4c3n2)CC1` [Ex-311, 7-fluoro-2-((1-(2-methoxybenzyl)-piperidin-4-yl)-methyl)imidazo-[1,2-c]quinazolin-5-amine] the value was 94 nM; for `Cc1ccc(CN2CCC(Cc3cn4c(N)nc5c(F)cccc5c4n3)CC2)cc1` [Ex-312, 7-fluoro-2-((1-(4-methylbenzyl)piperi-din-4-yl)methyl)-imidazo-[1,2-c]-quinazolin-5-amine], 48 nM.
Take `Nc1nc2c(F)cccc2c2nc(CC3CCN(Cc4cccnc4)CC3)cn12` [Ex-313, 7-fluoro-2-((1-(pyridin-3-yl-methyl)piperidin-4-yl)methyl)imidazo-[1,2-c]quinazolin-5-amine]: the Ki worked out at 310 nM.
Turning to `Nc1nc2c(F)cccc2c2nc(CC3CCN(C(=O)c4ccccc4)CC3)cn12` [Ex-315, (4-((5-amino-7-fluoro-imidazo[1,2-c]quina-zolin-2-yl)methyl)-piperidin-1-yl)-(phenyl)methanone], the Ki was found to be 82 nM.
The figure for `Nc1nc2c(F)cccc2c2nc(CC3CCN(C(=O)OCc4ccccc4)CC3)cn12` [Ex-316, benzyl 4-((5-amino-7-fluoroimidazo[1,2-c]quinazolin-2-yl)-methyl)piperidine-1-carboxylate] is 30 nM.
